According to article PMC6718478, “A Comprehensive Antimicrobial Activity Evaluation of the Recombinant Microcin J25 Against the Foodborne Pathogens Salmonella and E. coli O157:H7 by Using a Matrix of Conditions” (Frontiers in Microbiology, 2019):
Positions of bridges follow the written chain, without caps; N, C: chain ends. Residues, ends and D or L forms follow the SMILES beside them.

Legend:
chymotrypsin = experiment: Resistance to a single protease, inhibition zone read-out; type: in vitro ADME; conditions: chymotrypsin for 2 and 4 h; 1 × MIC; inhibition zone against S. Pullorum; three replicate experiments
Protocol: (§1) The resistance of recombinant MccJ25 to pepsin, trypsin and chymotrypsin was evaluated as described previously ([Chen et al., 2009]; [Meng et al., 2019]) with slight modification. The indicator Salmonella was prepared (approximately 1 × 10^7 CFU/mL), and 1 mL of bacterial inoculum was transferred into 9 mL of each medium with the recombinant MccJ25 and into corresponding control media without the recombinant MccJ25. LB agar inoculated with the indicator bacteria S. Pullorum (approximately 10^5 viable cells per mL) was poured over plates that had been fitted with Oxford cups to make wells. Then, 150 μL of a 1 × MIC final concentration of recombinant MccJ25 that had been previously treated under various conditions for 2 and 4 h were added to the wells. The agar overlays were incubated overnight at 37°C, and the inhibition zones were recorded.

pepsin = experiment: as above; type: in vitro ADME; conditions: pepsin for 2 and 4 h; 1 × MIC; inhibition zone against S. Pullorum; three replicate experiments
Protocol: as §1

trypsin = experiment: as above; type: in vitro ADME; conditions: trypsin for 2 and 4 h; 1 × MIC; inhibition zone against S. Pullorum; three replicate experiments
Protocol: as §1

S. Pullorum [1] = experiment: Antimicrobial activity after treatment with simulated gastric fluid (SGF); type: in vitro ADME, Salmonella Pullorum; conditions: simulated gastric fluid, 2, 4, and 6 h; 1 × MIC; inhibition zone; three replicate experiments
Protocol: (§2) Biological fluids (SGF; SIF) and serum were prepared as described previously ([Liu et al., 2013]; [Xia et al., 2015]). Then, assays of the antibacterial activity of recombinant MccJ25 in SGF, SIF and serum were performed. S. Pullorum was grown in Mueller-Hinton broth (MHB, Difco Laboratories, Detroit, MI, United States). One milliliter of bacterial inoculum was transferred into 9 mL of each medium with the recombinant MccJ25 and into corresponding control medium without the recombinant MccJ25. LB agar inoculated with the indicator bacteria S. Pullorum (approximately 10^5 viable cells per mL) was poured over plates fitted with Oxford cups to make wells. Hundred and fifty μL of a 1 × MIC final concentration of recombinant MccJ25 samples that had previously been treated with SGF, SIF and serum for 2, 4, and 6 h, respectively, were added to the wells. The agar overlays were incubated overnight at 37°C, and the inhibition zones were recorded.

S. Pullorum [2] = experiment: Antimicrobial activity after treatment with simulated intestinal fluid (SIF); type: in vitro ADME, Salmonella Pullorum; conditions: simulated intestinal fluid, 2, 4, and 6 h; 1 × MIC; inhibition zone; three replicate experiments
Protocol: as §2

S. Pullorum [3] = experiment: Antimicrobial activity after treatment with serum; type: in vitro ADME, Salmonella Pullorum; conditions: murine serum, 2, 4, and 6 h; 1 × MIC; inhibition zone; three replicate experiments
Protocol: as §2

SMILES: CC[C@H](C)[C@H](NC(=O)CNC(=O)[C@@H](NC(=O)[C@H](Cc1ccccc1)NC(=O)[C@H](Cc1ccc(O)cc1)NC(=O)[C@@H]1CCC(=O)NCC(=O)NCC(=O)N[C@@H](C)C(=O)NCC(=O)N[C@@H](Cc2cnc[nH]2)C(=O)N[C@@H](C(C)C)C(=O)N2CCC[C@H]2C(=O)N1)C(C)C)C(=O)NCC(=O)N[C@H](C(=O)N1CCC[C@H]1C(=O)N[C@H](C(=O)N[C@@H](CO)C(=O)N[C@@H](Cc1ccccc1)C(=O)N[C@@H](Cc1ccc(O)cc1)C(=O)NCC(=O)O)[C@@H](C)CC)[C@@H](C)O [recombinant MccJ25, microcin J25] (GGAGHVPEYFVGIGTPISFYG-OH; lactam N-8)
- antimicrobial activity after protease challenge (chymotrypsin): maintained its antimicrobial activity
- antimicrobial activity after protease challenge (pepsin): maintained its antimicrobial activity
- antimicrobial activity after protease challenge (trypsin): maintained its antimicrobial activity
- growth inhibition of S. Pullorum after incubation with SGF (S. Pullorum [1]): still inhibited the growth of S. Pullorum in a manner similar to that of recombinant MccJ25 alone
- growth inhibition of S. Pullorum after incubation with SIF (S. Pullorum [2]): still inhibited the growth of S. Pullorum in a manner similar to that of recombinant MccJ25 alone
- growth inhibition of S. Pullorum after incubation with serum (S. Pullorum [3]): still inhibited the growth of S. Pullorum in a manner similar to that of recombinant MccJ25 alone
